Laboratory results: patent US9169247B2, “Tetrahydro-beta-carboline derivatives, synthesis and use thereof” (Southern Research Institute, priority 2009, dated 2015)

Key:
HT-29 = assay: Growth assay (Cell Titer Glo); type: cell-based, human; details: Homo sapiens, HT-29, 72 h, HT-29 colon
Method: (§1) Compounds 2a-h were tested for tumor cell growth inhibitory activity using the human breast MDA-MB-231 and ZR75-1 tumor cell lines and the colon CACO-2, SW-1116, and HT-29 tumor cell lines.
(§2) All human tumor cell lines were obtained from ATCC and grown under standard cell culture conditions at 37° C. in a humidified atmosphere with 5% CO2. Cells were grown in RPMI 1640 supplemented with 5% fetal bovine serum 2 mM glutamine, 100 units/ml penicillin, 100 units/ml streptomycin, and 0.25 μg/ml amphotericin. Cells were harvested at 70 to 90% confluence with trypsin/EDTA and used immediately Cell count and viability was determined by Trypan blue staining followed by hemocytometry. Only cultures displaying >95% cell viability were used for experiments. HMEC were grown according to the specifications from the supplier (Lonzo).
(§3) Tissue culture microtiter 96-well plates were seeded with cells at a density of 5,000 cells/well. The plates were incubated for 18-24 hours prior to any treatment. All test compounds were solubilized in 100% DMSO and diluted with media to obtain a final DMSO concentration of 0.1%. Cell viability was measured 72 hours after treatment by the Cell Titer Glo Assay (Promega), which is a luminescent assay that is an indicator of live cells as a function of metabolic activity and ATP content. The assay was performed according to manufacturer's specifications. Luminescence was measured by a Perkin Elmer Victor® multi-label plate reader.^6
(§4) Dose response curves were analyzed using Prism™ 4 software (GraphPad) to calculate IC50 values using a four parameter logistic equation.

[1] = test system: human MDA-MB-231 breast tumor cells; assay: Growth assay (Cell Titer Glo); type: cell-based; details: Homo sapiens, MDA-MB-231, 72 h, MDA-MB-231 breast; 72 h; Tables 3-5; read-out: IC50 value, μM, growth
Method: as §2, §3, §4

ZR75-1 = assay: Growth assay (Cell Titer Glo); type: cell-based; details: Homo sapiens, ZR-75-1; ZR75-1 breast; 72 h
Method: as §1, §2, §3, §4

SW1116 = assay: Growth assay (Cell Titer Glo); type: cell-based; details: Homo sapiens, SW 1116; SW1116 colon; 72 h
Method: as §1, §2, §3, §4

CACO-2 = assay: Growth assay (Cell Titer Glo); type: cell-based; details: Homo sapiens; CACO-2 colon; 72 h
Method: as §1, §2, §3, §4

COC(=O)[C@H]1Cc2c([nH]c3ccccc23)[C@H](c2ccccc2Br)N1C(=O)CCl [Compound 2b, Methyl (1S,3R)-1-(2-bromophenyl)-2-(2-chloroacetyl)-2,3,4,9-tetrahydro-1H-β-carboline-3-carboxylate]
IC50 (HT-29): 1.16 µM
IC50 [1]: 0.02 µM
IC50 (ZR75-1): 1.1 µM
IC50 (SW1116): 4.3 µM
IC50 (CACO-2): 1.6 µM

COC(=O)[C@@H]1Cc2c([nH]c3ccccc23)[C@H](c2ccccc2Br)N1C(=O)CCl [Compound 2c, Methyl (1S,3S)-1-(2-bromophenyl)-2-(2-chloroacetyl)-2,3,4,9-tetrahydro-1H-β-carboline-3-carboxylate]
IC50 (HT-29): 0.77 µM
IC50 [1]: 0.02 µM
IC50 (ZR75-1): 1.1 µM
IC50 (SW1116): 2.72 µM
IC50 (CACO-2): 0.1 µM

COC(=O)[C@@H]1Cc2c([nH]c3ccccc23)[C@@H](c2ccccc2Br)N1C(=O)CCl [Compound 2d, Methyl (1R,3S)-1-(2-bromophenyl)-2-(2-chloroacetyl)-2,3,4,9-tetrahydro-1H-β-carboline-3-carboxylate]
IC50 (HT-29): 3.2 µM
IC50 [1]: 0.25 µM
IC50 (ZR75-1): 3.61 µM
IC50 (SW1116): 1.05 µM
IC50 (CACO-2): 0.55 µM

COC(=O)[C@H]1Cc2c([nH]c3ccccc23)[C@@H](c2cc(OC)ccc2OC)N1C(=O)CCl [Compound 2e, Methyl (1R,3R)-1-(2,5-dimethoxyphenyl)-2-(2-chloroacetyl)-2,3,4,9-tetrahydro-1H-β-carboline-3-carboxylate]
IC50 (HT-29): 3.38 µM
IC50 [1]: 4.25 µM
IC50 (ZR75-1): 5.7 µM
IC50 (SW1116): 7.2 µM
IC50 (CACO-2): 3.5 µM
melting point: 108 to 111 °C

COC(=O)[C@@H]1Cc2c([nH]c3ccccc23)[C@H](c2cc(OC)ccc2OC)N1C(=O)CCl [Compound 2g, Methyl (1S,3S)-1-(2,5-dimethoxyphenyl)-2-(2-chloroacetyl)-2,3,4,9-tetrahydro-1H-β-carboline-3-carboxylate]
IC50 (HT-29): 6.12 µM
IC50 [1]: 1.6 µM
IC50 (ZR75-1): 4.13 µM
IC50 (SW1116): 3.71 µM
IC50 (CACO-2): 3.04 µM
melting point: 105 to 108 °C

COC(=O)C1Cc2c([nH]c3ccccc23)C(c2cc(OC)ccc2OC)N1C(=O)CCl [Compound 2h, Methyl (1R,3S)-1-(2,5-dimethoxyphenyl)-2-(2-chloroacetyl)-2,3,4,9-tetrahydro-4H-β-carboline-3-carboxylate]
IC50 (HT-29): 5.59 µM
IC50 [1]: 0.04 µM
IC50 (ZR75-1): 3.95 µM
IC50 (SW1116): > 10 µM
IC50 (CACO-2): 0.29 µM
melting point: 228 to 230 °C
